Here are results for three compounds from patent publication US4760065A, “Trifluoromethyl substituted tetracyclic quinazolin-ones having tranquilizing activity” (priority 1986, dated 1988).

Data set [1] concerns the target calf brain benzodiazepine receptors (3H-Flunitrazepam binding, calf brain cortex). Nature of the data set: Flunitrazepam Receptor Binding Assay, Chang et al. modification (FBA TEST No. 2). To be noted: read-out: IC50 in FBA test (inhibition of specific binding of 3H-Flunitrazepam). The procedure:
Substantially similar results are obtainable in a Flunitrazepam Receptor Binding Assay (FBA) as described by Chang et. al., Eur. J. Pharmacol., 48, 213 (1978): when carried out with the non-substantive modifications evident from the following description (hereinafter FBA TEST No. (2): Fresh calf brain cortex is homogenized in a 19 fold volume of Tris-HCl buffer pH 7.4, using a Brinkman Polytron PT 20 and centrifuged at 50'000 g for 10 min. The pellets are frozen at -20° C. and resuspended in a 400 fold volume of Tris-buffer pH 7.4 before use for the binding assay. The assay mixtures consist of 1.8 ml of homogenate (corresponding to 4.5 mg of original tissue), 0.1 ml [^3 H]-Flunitrazepam (final concentration 1.5 nM), and 0.1 ml of buffer for determination of total binding or 0.1 ml of unlabelled Flunitrazepam (final concentration 1 μM) for determination of nonspecific binding, respectively. To assess the potency of various drugs in inhibiting specific binding, drugs are added (instead of buffer) to give 5 to 9 different concentrations between 1 nM and 10 μM, each in duplicate. After incubation for 15 min at 0° C., the assay mixtures are rapidly filtered through Whatman GF/B filters and washed twice with 5 ml of ice cold Tris-buffer. The filters are counted in Rialuma on a LKB Rach-Beta Liquid Scintillation Counter. […]

For data set [2], the system named is monkeys, rats, cats, mice. The experiment in a line: Other standard CNS depressant tests (sleep studies, spinal reflex test, chemically induced convulsions test, Dunham rotarod test, variable interval segment of Geller Conflict test). Type of data set: in vivo. Conditions: at the doses useful as minor tranquilizers, sleep studies in monkeys and rats. A general note: In the rotarod test animals must keep their balance on a rotating rod.

Data set [3] has as its system rats. The experiment in a line: Geller Conflict test (conflict segment). In kind it is in vivo. Conditions: Rattus norvegicus; for minimal effective dose: conflict segment (number of lickings), read-out: minimum effective dosage in conflict test. How it is done:
Speth et al., Life Science, 22: 859 (1978). Routine and non-substantive modifications of the Flunitrazepam Receptor Binding Assay that are evident from the following description are employed in such evaluation in which non-radioactive candidate compounds are tested for their ability to displace ^3 H-flunitrazepam binding from isolated calf brain benzodiazepine receptors. […] This suspension is made homogenous by homogenation with a Brinkmann Polytron using a rheostate setting of 8 for 10 seconds. Ten λ of ^3 H-flunitrazepam solution is diluted in 0.05M Tris buffer (pH 7.1 at 37° C.) to give a concentration of 10 nM (3.13×10^-6 mg/ml). This solution is stored frozen at -20° C., while the stock ^3 H-flunitrazepam solution in ethanol is kept refrigerated at +2° C. Periodically, the stock ethanolic ^3 H-flunitrazepam solution is examined by TLC for chemical purity. If the purity becomes <90%, the stock solution is repurified or new high purity ^3 H-flunitrazepam is obtained and the impure ^3 H-flunitrazepam discarded. A 0.1 ml portion of 10 nM ^3 H-flunitrazepam "working" solution is added to 12×75 mm borosilicate disposable test tube along with 0.1 ml of freshly prepared 10% ethanol solution. This is the control tube for measuring total binding. Non-specific binding is determined by the addition of 2×10^-5 diazepam (in 10% ethanol) to other tubes in the place of 0.1 ml 10% ethanol. The specific binding is determined in the final results by subtraction of the non-specific binding from the total binding. […] Three mg of each compound are placed in 18×150 mm borosilicate disposable test tubes. […] The ^3 H-flunitrazepam trapped on the filters is counted by liquid scintillation counting on a Beckman LS 8000 after the filters are rapidly shaken for 45 minutes in the scintillation vials with 10 ml of scintillation cocktail. Results of compounds screened are calculated by the on-line data reduction system in the Beckman LS 8000, and are expressed as a percent specifically bound compared to control. […]

For data set [4], the system named is rats. Nature of the data set: Sleep studies (sleep/wakefulness studies). In kind it is in vivo. Conditions: indicative of sedation. The text has this:
(§1) While the racemates and individual optical isomers were indicated to have about the same level of activity in FBA tests specifically indicating tranquilizing activity, a marked difference was found between R-and S optical isomers in vivo in tests indicative of sedation. […] On the other hand, in the case of the S-isomer, the doses producing sedation effects were indicated to substantially overlap those at which tranquilizing activity was indicated. For example, in vivo tests in rats. The S-isomer of Example 9 hereinafter was indicated to have tranquilizing (anxiolytic) action in the dose range of about 2 to 15 milligrams per kilograms and mild sedation-related effects in the dose range of about 3-50 milligrams per kilogram. […] In evaluation of the optical isomers in rats to obtain the above indications, the Discrimination Test and the conflict segment (number of lickings) of Geller Conflict Test were used to evaluate tranquilizing activity. […] In the conflict test, the R-isomer was indicated to have a minimum effective dosage of 30 mg/kg. and the S-isomer a minimum effective dosage of 10 mg/kg. […] On the other hand, the S-isomer was indicated to have an ED50 between 40-50 mg/kg. in the Rotarod, Locomotion and Rearing Tests and a low minimum effective dose of 3 mg/kg. in the Sleep Studies.

Data set [5] concerns rats. The experiment in a line: Discrimination Test. In kind it is in vivo. To be noted: Rattus norvegicus, tranquilizing activity.
Text: as §1

Data set [6] is described as follows: Rotarod, Locomotion and Rearing Tests (indicative of sedation). In kind it is in vivo. Conditions: rat, locomotion, rearing tests, rats, one value stated for the three tests.
Text: as §1

In data set [7] the test system is rats. Nature of the data set: In vivo tests in rats: dose ranges of tranquilizing action and sedation-related effects. To be noted: about; for dose range of sedation-related effects: mild (S-isomer) or weak-to-mild (R-isomer) effects.
Text: as §1

Regarding `O=c1c2cc(C(F)(F)F)ccc2nc2n1CC1CCCCN21` (stereo not drawn) [Example 1, Trans(e,e)-( )-2-trifluoromethyl-7,8,9,10,10a,11-Hexahydro-13H-pyrido[1',2':3,4]-imidazo[2,1-b]-quinazolin-13-one], in data set [1], the IC50 amounted to 6.5 nM. For the same compound, in data set [2], the “activity in other standard CNS depressant tests” value is “only mildly active or essentially inactive”. Further, in data set [3] (po, P.O.), the 50% effect level (ED50) was put at a dose of 15 mg/kg.
Take `O=c1c2cc(C(F)(F)F)ccc2nc2n1C[C@H]1CCCCN21` [Example 5, (-)-10aR-7,8,9,10,10a,11-hexahydro-2-trifluoromethyl-13H-pyrido[1,'2':3,4]imidazo[2,1b]quinazolin-13-one]: the “minimum effective dose in sleep studies (sleep/wakefulness studies)” value in data set [4] turned out to be 60 mg/kg. For the same compound, the ED50 in data set [5] was 4.2 mg/kg; in data set [6], more than 120 mg/kg. Also, in data set [3], the minimal effective dose came to 30 mg/kg. Also, the “dose range of tranquilizing (anxiolytic) action” value in data set [7] was 4-40 milligrams per kilogram. The “dose range of sedation-related effects” value in data set [7] is 60-120 milligrams per kilogram.
As for `O=c1c2cc(C(F)(F)F)ccc2nc2n1C[C@@H]1CCCCN21` [Example 8, (+)-10aS-7,8,9,10,10a,11-Hexahydro-2-trifluoromethyl-13H-pyrido[1,'2':3,4]imidazo[2,1b]quinazolin-13-one], in data set [4], the “minimum effective dose in sleep studies (sleep/wakefulness studies)” value is 3 mg/kg. In addition, the values for the ED50 in data set [5] and in data set [6] were 2.6 mg/kg and 40 to 50 mg/kg, respectively. Besides, the minimal effective dose in data set [3] worked out at 10 mg/kg. Moreover, the “dose range of sedation-related effects” value in data set [7] is given as 3-50 milligrams per kilogram.

By IC50 is commonly meant the midpoint of a concentration-inhibition curve. In general, ED50 refers to the midpoint of the dose-response relation. A higher ED50 goes with a need for a large dose.
